In ChEMBL document CHEMBL5247662, “Design, syntheses and biological evaluation of natural product aiphanol derivatives and analogues: Discovery of potent anticancer agents” (Bioorg Med Chem Lett, 2023):

Assays:
Type in all cases: functional, cell-based
HT-29 = assay: Antiproliferative activity against human HT-29 cells assessed as inhibition of cell growth measured after 48 hrs by CCK-8 assay; conditions: HT-29, 48 h
HCT-116 = assay: Antiproliferative activity against human HCT-116 cells assessed as inhibition of cell growth measured after 48 hrs by CCK-8 assay; conditions: HCT-116, 48 h
MCF7 = assay: Antiproliferative activity against human MCF7 cells assessed as inhibition of cell growth measured after 48 hrs by CCK-8 assay; conditions: MCF7, 48 h
Bel-7402 = assay: Antiproliferative activity against human Bel-7402 cells assessed as inhibition of cell growth measured after 48 hrs by CCK-8 assay; conditions: Bel-7402, 48 h
HepG2 = assay: Antiproliferative activity against human HepG2 cells assessed as inhibition of cell growth measured after 48 hrs by CCK-8 assay; conditions: HepG2, 48 h
SW1990 = assay: Antiproliferative activity against human SW1990 cells assessed as inhibition of cell growth measured after 48 hrs by CCK-8 assay; conditions: SW1990, 48 h
KYSE-30 = assay: Antiproliferative activity against human KYSE-30 cells expressing luciferase assessed as inhibition of cell growth measured after 48 hrs by CCK-8 assay; conditions: KYSE-30, 48 h
AGS = assay: Antiproliferative activity against human AGS cells assessed as inhibition of cell growth measured after 48 hrs by CCK-8 assay

| IC50 (HT-29) [µM] | IC50 (HCT-116) [µM] | Compound | also measured |
| --- | --- | --- | --- |
| 25.1 | 27.2 | COc1cc([C@@H]2Oc3cc(/C=C/c4ccc(C(F)(F)F)cc4)ccc3O[C@H]2CO)cc(OC)c1O |  |
| 19.6 | 15.9 | COc1cc([C@@H]2Oc3cc(/C=C/c4cc(O)cc(O)c4)ccc3O[C@H]2CNC(=O)c2ccccc2)cc(OC)c1O |  |
| 16.1 | 15.9 | COc1ccc(C(=O)NC[C@@H]2Oc3ccc(/C=C/c4cc(O)cc(O)c4)cc3O[C@H]2c2cc(OC)c(O)c(OC)c2)cc1 |  |
| 14.9 | 8.83 | COc1cc([C@@H]2Oc3cc(/C=C/c4ccc5ccccc5n4)ccc3O[C@H]2CO)cc(OC)c1O |  |
| > 100 | > 100 | COc1cc([C@@H]2Oc3ccccc3O[C@H]2CO)cc(OC)c1O |  |
| 7.7 | 14.5 | CCCCCCCCCCCCC(=O)NC[C@@H]1Oc2ccc(/C=C/c3cc(O)cc(O)c3)cc2O[C@H]1c1cc(OC)c(O)c(OC)c1 |  |
| 4.63 | 7.16 | COc1cc([C@@H]2Oc3cc(/C=C/c4ccc([N+](=O)[O-])cc4)ccc3O[C@H]2CO)cc(OC)c1O |  |
| 10.4 | 19.9 | COc1cc([C@@H]2Oc3cc(/C=C/c4cc(OC(C)=O)cc(OC(C)=O)c4)ccc3O[C@H]2COC(C)=O)cc(OC)c1OC(C)=O |  |
| 16.4 | 49.8 | COc1cc([C@@H]2Oc3cc(CCc4cc(O)cc(O)c4)ccc3O[C@H]2CO)cc(OC)c1O |  |
| > 100 | > 100 | COc1cc([C@@H]2Oc3cc(C=O)ccc3O[C@H]2CO)cc(OC)c1O |  |
| 10.3 | 21.2 | COC(=O)c1ccc(/C=C/c2ccc3c(c2)O[C@@H](c2cc(OC)c(O)c(OC)c2)[C@H](CO)O3)cc1 |  |
| 15.6 | 14.2 | COc1cc([C@@H]2Oc3cc(/C=C/c4cc(O)cc(O)c4)ccc3O[C@H]2CNC(=O)c2ccc(F)c(F)c2)cc(OC)c1O |  |
| 16.5 | 29.5 | COc1cc([C@@H]2Oc3cc(/C=C/c4cc(O)cc(O)c4)ccc3O[C@H]2CNC(=O)S(C)(=O)=O)cc(OC)c1O |  |
| > 200 | > 200 | COc1cc([C@@H]2Oc3cc(/C=C/c4cc(O)cc(O)c4)ccc3O[C@H]2CO[C@@H]2O[C@H](CO)[C@H](O)[C@H](O)[C@H]2O)cc(OC)c1O |  |
| 14.1 | 27 | COc1cc([C@@H]2Oc3cc(/C=C/c4cc(O)cc(O)c4)ccc3O[C@H]2CN)cc(OC)c1O |  |
| 24.1 | > 50 | OC[C@@H]1Oc2ccc(/C=C/c3cc(O)cc(O)c3)cc2O[C@H]1c1ccc(O)cc1 |  |
| 7.92 | 30.9 | COc1cc([C@@H]2Oc3cc(/C=C/c4cc(OC(C)=O)cc(OC(C)=O)c4)ccc3O[C@H]2CO)cc(OC)c1OC(C)=O |  |
| 55.3 | > 50 | OC[C@@H]1Oc2ccc(/C=C/c3cc(O)cc(O)c3)cc2O[C@H]1c1cc(Cl)c(O)c(Cl)c1 |  |
| 13.9 | 33.1 | COc1cc([C@@H]2Oc3cc(/C=C/c4cc(O)cc(O)c4)ccc3O[C@H]2CNC(=O)C(C)C)cc(OC)c1O |  |
| 30.5 | 39.7 | OC[C@@H]1Oc2ccc(/C=C/c3cc(O)cc(O)c3)cc2O[C@H]1c1cc(Br)c(O)c(Br)c1 |  |
| 2.42 | 2.02 | COc1cc([C@@H]2Oc3cc(/C=C/c4ccc(C#N)cc4)ccc3O[C@H]2CO)cc(OC)c1O | IC50 (MCF7): 1.21 µM; IC50 (Bel-7402): 0.86 µM; IC50 (HepG2): 2.23 µM; IC50 (SW1990): 1.52 µM; IC50 (KYSE-30): 2.97 µM; IC50 (AGS): 0.81 µM |
| 13.5 | 11.4 | COc1cc([C@@H]2Oc3cc(/C=C/c4cccc(C#N)c4)ccc3O[C@H]2CO)cc(OC)c1O |  |
| 19.1 | 16.7 | COc1cc([C@@H]2Oc3cc(-c4ccccc4)ccc3O[C@H]2CO)cc(OC)c1O |  |

The next lines start with the molecule.

| Compound | IC50 (HT-29) [µM] | IC50 (HCT-116) [µM] | also measured |
| --- | --- | --- | --- |
| COc1cc([C@@H]2Oc3cc(/C=C/c4ccc(I)cc4)ccc3O[C@H]2CO)cc(OC)c1O | 25 | 28.3 |  |
| COc1cc([C@@H]2Oc3cc(/C=C/c4cc(O)cc(O)c4)ccc3O[C@H]2CO[C@@H]2O[C@H](CO)[C@@H](O)[C@H](O)[C@H]2O)cc(OC)c1O | > 200 | > 200 |  |
| COc1cc([C@@H]2Oc3cc(/C=C/c4cc(O)cc(O)c4)ccc3O[C@H]2CNC(=O)S(=O)(=O)c2ccc(C)cc2)cc(OC)c1O | 5.89 | 4.63 | IC50 (MCF7): 6.31 µM; IC50 (Bel-7402): 6.29 µM; IC50 (HepG2): 7.44 µM; IC50 (SW1990): 9.65 µM; IC50 (KYSE-30): 17.9 µM; IC50 (AGS): 4.95 µM |
| COc1cc([C@@H]2Oc3cc(/C=C/c4cc(O)cc(O)c4)ccc3O[C@H]2CNC(=O)c2cc(F)c(F)c(F)c2)cc(OC)c1O | 7.08 | 12.3 |  |
| COc1cc([C@@H]2Oc3cc(/C=C/c4ccccc4)ccc3O[C@H]2CO)cc(OC)c1O | 9.14 | 12.4 |  |
| COc1cc(/C=C/c2ccc3c(c2)O[C@@H](c2cc(OC)c(O)c(OC)c2)[C@H](CO)O3)cc(OC)c1 | 14 | 16 |  |
| COc1cc([C@@H]2Oc3cc(/C=C/c4cc(O)cc(O)c4)ccc3O[C@H]2CNC(=O)c2ccc(C(F)(F)F)cc2)cc(OC)c1O | 8.84 | 11.6 |  |
| COc1cc([C@@H]2Oc3cc(/C=C/c4cc(O)cc(O)c4)ccc3O[C@H]2CNC(C)=O)cc(OC)c1O | 8.52 | 47.7 |  |
| COc1cc(C2Oc3cc(/C=C/c4nc(C)c5ccccc5n4)ccc3OC2CO)cc(OC)c1O (single isomer, unassigned) | 4.4 | 3.86 |  |
| COc1cc([C@@H]2Oc3cc(/C=C/c4ccccn4)ccc3O[C@H]2CO)cc(OC)c1O | 33 | 17.1 |  |
| COc1cc([C@@H]2Oc3cc(/C=C/c4ccccc4C#N)ccc3O[C@H]2CO)cc(OC)c1O | 14.8 | 12.4 |  |
| COc1cc([C@@H]2Oc3cc(/C=C/c4ccsc4)ccc3O[C@H]2CO)cc(OC)c1O | 22.9 | 42.2 |  |
| COc1cc([C@@H]2Oc3cc(/C=C/c4cc(O)cc(O)c4)ccc3O[C@H]2CO)cc(OC)c1O | 8.36 | 20 | IC50 (MCF7): 45.3 µM; IC50 (Bel-7402): 64.9 µM; IC50 (HepG2): 39 µM; IC50 (SW1990): 28.3 µM; IC50 (KYSE-30): 61.5 µM; IC50 (AGS): 38.9 µM |
| OC[C@@H]1Oc2ccc(/C=C/c3cc(O)cc(O)c3)cc2O[C@H]1c1cc(F)c(O)c(F)c1 | 41.4 | > 50 |  |
| COc1cc([C@@H]2Oc3cc(/C=C/c4cc(O)cc(O)c4)ccc3O[C@H]2CNC(=O)c2ccc(F)cc2)cc(OC)c1O | 7.9 | 16.8 |  |
| COc1cc([C@@H]2Oc3cc(/C=C/c4ccc(NC(C)=O)cc4)ccc3O[C@H]2CO)cc(OC)c1O | > 100 | > 100 |  |
| CCOC(=O)/C=C/c1ccc2c(c1)O[C@@H](c1cc(OC)c(O)c(OC)c1)[C@H](CO)O2 | > 50 | > 50 |  |
